Reference: US20210246115A1 (Bioimics AB, priority 2017, published 2021)
Values after ≈ are worked out from the molar mass of the structure shown. Structures can show the parent of a compound that is named as a salt. Where two headings read alike, the source gives them in different places.

Columns and labels:
[1] = system: Staphylococcus aureus subsp. aureus (ATCC29213); experiment: MIC, broth microdilution (CLSI), Staphylococcus aureus ATCC29213; assay type: cell-based; conditions: for MIC: Staphylococcus aureus; for S. aureus ATCC 29213 MIC: Table XIII, hydrochloride salt
[2] = system: E. coli RNase P RNA, M1 RNA; experiment: Inhibition of bacterial RNase P activity, IC50 determination (cleavage of pATSerUG by M1 RNA); assay type: biochemical; conditions: NI: No inhibition
[3] = system: Escherichia coli (ATCC25922); experiment: MIC, broth microdilution (CLSI), Escherichia coli; conditions: for MIC: Escherichia coli, ATCC25922, read-out: E. coli ATCC 25922 MIC, Table XIII; for E. coli ATCC 25922 MIC: Table XIII
[4] = system: Staphylococcus aureus (ATCC25923); experiment: MIC, broth microdilution (CLSI), Staphylococcus aureus ATCC25923; conditions: Staphylococcus aureus, ATCC25923, read-out: S. aureus ATCC 25923 MIC
Experimental: Initial minimal inhibitory concentration (MIC) tests were made on two bacterial strains: • Escherichia coli (ATCC25922) • Staphylococcus aureus (ATCC25923).
MIC values were determined using the standard broth microdilution procedure based on the guidelines by the Clinical and Laboratory Standards Institute (CLSI). Briefly, the compounds were dissolved in DMSO to 10 mM. They were diluted in cation-adjusted Mueller-Hinton broth (CAMHB) to four times the highest concentration tested. A serial two-fold dilution in CAMHB was done in microdilution plates. The inoculum of bacterial strain to be tested was prepared by making a suspension of colonies from an 18 to 24 hours old plate in CAMHB. The inoculum was diluted so that, after inoculation, each well contained approximately 5×10^5 CFU/mL. To a volume of 50 μl compound in CA 3 an equal volume of inoculum was added. The tray was sealed in a plastic bag and incubated at 35° C. for 16 to 20 hours. To aid in the detection of growth the dye resazurin was added to a final concentration 0.001% and incubated at room temperature for 1 h. Reduction of resazurin, and therefore bacterial growth, was seen as a change from blue to pink.

[5] = ATCC29213, Table XIII, read-out: S. aureus ATCC 29213 MIC
[6] = ATCC29213, read-out: S. aureus ATCC 29213 MIC, Table XIII

Compound	MIC [1, 5]	IC50 [2]	MIC [3]	MIC [4]	MIC [1, 6]	S. aureus ATCC 29213 MIC [1]	IC50 ([2]; hydrochloride salt)	E. coli ATCC 25922 MIC [3]	E. coli ATCC 25922 MIC ([3]; hydrochloride salt)
Cc1cccc(C(CC(=O)NC2CCNCC2)c2cn(CC3CCCCC3)c3ccc(C(=O)O)cc23)c1.Cl (stereo not drawn) [Compound 297, 1-(cyclohexylmethyl)-3-(3-oxo-3-(piperidin-4-ylamino)-1-(m-tolyl)propyl)-1H-indole-5-carboxylic acid hydrochloride salt]	32 mg/L	38 µM	> 128 mg/L	34 mg/L					
Cc1cccc(C(CCNC2CCNCC2)c2cn(CC3CCOCC3)c3ccc(Br)cc23)c1 (stereo not drawn) [Compound 293, N-(3-(5-bromo-1-((tetrahydro-2H-pyran-4-yl)methyl)-1H-indol-3-yl)-3-(m-tolyl)propyl) piperidin-4-amine hydrochloride salt]		70 µM	4 mg/L	5 mg/L	8 mg/L				
Cl.c1ccc(-c2ccc(CNCCc3c[nH]c4ccccc34)cc2)cc1 [Compound 24, N-([1,1′-biphenyl]-4-ylmethyl)-2-(1H-indol-3-yl)ethan-1-amine hydrochloride salt]	6 mg/L		46 mg/L	6 mg/L					
Cl.N[C@H]1CC[C@H](NC(=O)CC(c2cncc3ccccc23)c2cn(CC3CCCCC3)c3ccccc23)CC1 (stereo partly drawn) [Compound 191, N-((1R,4R)-4-aminocyclohexyl)-3-(1-(cyclohexylmethyl)-1H-indol-3-yl)-3-(isoquinolin-4-yl)propanamide hydrochloride salt]	8 mg/L	7 µM	8 mg/L	5 mg/L					
Cc1cccc(C(CCN[C@H]2CC[C@H](N)CC2)c2cn(CC3CCCC3)c3ccccc23)c1 (stereo partly drawn) [Compound 164, (1R,4R)-N1-(3-(1-(cyclopentylmethyl)-1H-indol-3-yl)-3-(m-tolyl)propyl)cyclohexane-1,4-diamine hydrochloride salt]	8 mg/L	9.6 µM	8 mg/L	4 mg/L					
Cc1cccc(C(CCNCC2CNCCO2)c2cn(CC3CCCCC3)c3ccccc23)c1 (stereo not drawn) [Compound 288, 3-(1-(cyclohexylmethyl)-1H-indol-3-yl)-N-(morpholin-2-ylmethyl)-3-(m-tolyl)propan-1-amine hydrochloride salt]		52 µM	4 mg/L	4 mg/L	128 mg/L				
Cc1cccc(C(CCNCC2CNCCO2)c2cn(CC3CCCCC3)c3ccc(Br)cc23)c1.Cl (stereo not drawn) [Compound 289, 3-(5-bromo-1-(cyclohexylmethyl)-1H-indol-3-yl)-N-(morpholin-2-ylmethyl)-3-(m-tolyl)propan-1-amine hydrochloride salt]	64 mg/L	15 µM	16 mg/L	2 mg/L					
NC1CCC(NCCC(c2ccc(F)c(F)c2)c2cn(CC3CCCCC3)c3ccccc23)CC1 [Compound 161, (1S,4S)-N1-(3-(1-(cyclohexylmethyl)-1H-indol-3-yl)-3-(3,4-difluorophenyl)propyl) cyclohexane-1,4-diamine hydrochloride salt]	2 mg/L	12 µM	2 mg/L	2 mg/L					
Cc1cccc(C(CC(=O)NC2CCNCC2)c2cn(CCC3CCCCC3)c3ccccc23)c1.Cl (stereo not drawn) [Compound 109, 3-(1-(2-cyclohexylethyl)-1H-indol-3-yl)-N-(piperidin-4-yl)-3-(m-tolyl)propanamide hydrochloride salt]	4 mg/L	3.7 µM	128 mg/L	4 mg/L					
Cl.O=C(CCC1C(=O)N(CC2CCCCC2)c2ccccc21)NC1CCNCC1 (stereo not drawn) [Compound 275, 3-(1-(cyclohexylmethyl)-2-oxoindolin-3-yl)-N-(piperidin-4-yl) propanamide hydrochloride salt]	> 128 mg/L	79 µM	> 128 mg/L	> 512 mg/L					
Cl.Cl.NCCCNCCC(c1cn(C2CCCCC2)c2ccccc12)C1CCCC1 (stereo not drawn) [Compound 423, N1-(3-(1-cyclohexyl-1H-indol-3-yl)-3-cyclopentylpropyl) propane-1,3-diamine hydrochloride salt]	8 mg/L	31 µM	2 mg/L						
Cc1cccc(C(CCN[C@H]2CC[C@H](N)CC2)c2cn(C3CCCC3)c3ccccc23)c1.Cl.Cl (stereo partly drawn) [Compound 332, (1R,4R)-N1-(3-(1-cyclopentyl-1H-indol-3-yl)-3-(m-tolyl)propyl) cyclohexane-1,4-diamine hydrochloride salt]	8 mg/L	39 µM	8 mg/L						
Cc1cccc(C(CCNCCCN)c2cn(C3CCCCC3)c3ccccc23)c1 (stereo not drawn) [Compound 358, N1-(3-(1-cyclohexyl-1H-indol-3-yl)-3-(m-tolyl)propyl)propane-1,3-diamine]	8 mg/L (≈ 19.8 µM)	38 µM	4 mg/L (≈ 9.91 µM)						
Cl.Cl.NCCCNCCC(c1ccccc1)c1cn(C2CCCCC2)c2ccccc12 (stereo not drawn) [Compound 343, N1-(3-(1-cyclohexyl-1H-indol-3-yl)-3-phenylpropyl) propane-1,3-diamine hydrochloride salt]	8 mg/L	64 µM	4 mg/L						
NCCCNC1CCCC(c2cn(C3CCCCC3)c3ccc(-c4cccc(OC(F)(F)F)c4)cc23)C1 (stereo not drawn) [Compound 404, N1-(3-(1-cyclohexyl-5-(3-(trifluoromethoxy)phenyl)-1H-indol-3-yl)cyclohexyl)propane-1,3-diamine hydrochloride salt]		4.8 µM	8 mg/L		4 mg/L				
Cc1cccc(C(CCNC2CCC(N)CC2)c2cn(C3CCCCC3)c3ccccc23)c1 (stereo not drawn) [Compound 308, N1-(3-(1-cyclohexyl-1H-indol-3-yl)-3-(m-tolyl)propyl)cyclohexane-1,4-diamine hydrochloride salt]			4 mg/L			4 mg/L	29 µM		
CCCCCCCCn1cc(C(CCNCCCN)C(CC)CC)c2ccccc21.Cl.Cl (stereo not drawn) [Compound 426, N1-(4-ethyl-3-(1-octyl-1H-indol-3-yl)hexyl)propane-1,3-diamine hydrochloride salt]	4 mg/L	8.3 µM	4 mg/L						
Cc1cccc(C(CCN[C@H]2CC[C@H](NC(N)=O)CC2)c2cn(C3CCCCC3)c3ccccc23)c1 (stereo partly drawn) [Compound 377, 1-((1R,4R)-4-((3-(1-cyclohexyl-1H-indol-3-yl)-3-(m-tolyl)propyl)amino)cyclohexyl) urea]	16 mg/L (≈ 32.9 µM)	130 µM	> 128 mg/L						
Cc1cccc(-c2ccc3c(c2)c(C2CCCC(NC4CCNCC4)C2)cn3C2CCCCC2)c1 (stereo not drawn) [Compound 396, N-(3-(1-cyclohexyl-5-(m-tolyl)-1H-indol-3-yl)cyclohexyl)piperidin-4-amine hydrochloride salt]		12 µM	4 mg/L		2 mg/L				
NC1CCC(NCCC(c2cccc(OC(F)(F)F)c2)c2cn(C3CCCCC3)c3ccccc23)CC1 [Compound 397, (1S,4S)-N1-(3-(1-cyclohexyl-1H-indol-3-yl)-3-(3-(trifluoromethoxy)phenyl)propyl)cyclohexane-1,4-diamine hydrochloride salt]						2 mg/L	6 µM	8 mg/L	
Cc1cccc(C(CCNC2CCN(C(=N)N)CC2)c2cn(C3CCCCC3)c3ccccc23)c1.Cl (stereo not drawn) [Compound 353, 4-((3-(1-cyclohexyl-1H-indol-3-yl)-3-(m-tolyl)propyl)amino)piperidine-1-carboximidamide hydrochloride salt]	4 mg/L	19 µM	32 mg/L						
Cc1cccc(-c2ccc3c(c2)c(CCNCCCN)cn3C2CCCCC2)c1.Cl.Cl [Compound 384, N1-(2-(1-cyclohexyl-5-(m-tolyl)-1H-indol-3-yl)ethyl)propane-1,3-diamine hydrochloride salt]	4 mg/L	19 µM	4 mg/L						
Cc1cccc(-c2ccc3c(c2)c(CCCNCCCN)cn3CC2CCCCC2)c1.Cl.Cl [Compound 375, N1-(3-(1-(cyclohexylmethyl)-5-(m-tolyl)-1H-indol-3-yl)propyl)propane-1,3-diamine hydrochloride salt]	4 mg/L	4.7 µM	4 mg/L						
Cc1cccc(C(CCNC2CCC(N)CC2)c2cn(C3CCCCC3)c3ccccc23)c1 [Compound 395, (1S,4S)- -N1-(3-(1-cyclohexyl-1H-indol-3-yl)-3-(m-tolyl)propyl) cyclohexane-1,4-diamine hydrochloride salt]						1 mg/L	8.2 µM		8 mg/L
